Tests used:
Settings in all cases: in vitro conditions
[1] = tested on: coffee leaf rust uredospores; assay: In vitro germination of coffee leaf rust uredospores (laboratory tests 2013); assay type: cell-based, Hemileia vastarix
Method: A laboratory methodology to understand the mode of action of PA1 (1%) was developed. The efficacy was performed using coffee leaf rust uredospores, collected in the field.

Collectotrichum sp = assay: In vitro inhibition of mycelial growth on amended PDA media; assay type: cell-based
Method: (§1) Additionally, an in vitro efficacy test was performed in order to determine the effect of PA5 against other Phytopathogens. Each pathogen strain was exposed to 0.5 and 2 cc/l, amended to PDA media. The inhibition percentage was evaluated against the control during 7 days.

Botrytis cinerea = assay: as above; assay type: cell-based
Method: as §1

Phytophthora capcisi = assay: as above; assay type: cell-based
Method: as §1

O=C(O)c1ccc(O)c(O)c1 [PA, 3,4-dihydroxybenzoic acid]
concentration with direct fungicide action on uredospores germination [1]: 0.25 mg/mL | growth inhibition (Collectotrichum sp): inhibits the growth | growth inhibition (Botrytis cinerea): inhibits the growth | growth inhibition (Phytophthora capcisi): inhibits the growth
